# Source: patent US8435978B2, “Substituted sulfonamide compounds” (Gruenenthal GmbH, priority 2006, dated 2013)
# Counter-ions that a name gives are not always drawn.
# Assays:
# [1] = target: T1, B1R receptor of the rat (Rattus norvegicus, UniProt P97583); assay: Functional study on the bradykinin receptor 1 (B1R), FLIPR Ca2+ assay, rB1R cells; assay type: cell-based; conditions: CHO-K1, test substance 10 μM, agonist Des-Arg9-bradykinin 100 nM, % inhibition compared with the maximum achievable inhibition, read-out: B1R Antagonism, rat [10 μM] % Inhibition
# T1 construct: host or cells: CHO K1 cells (Chinese hamster ovary), stably transfected
# T1 sequence (P97583 1-337): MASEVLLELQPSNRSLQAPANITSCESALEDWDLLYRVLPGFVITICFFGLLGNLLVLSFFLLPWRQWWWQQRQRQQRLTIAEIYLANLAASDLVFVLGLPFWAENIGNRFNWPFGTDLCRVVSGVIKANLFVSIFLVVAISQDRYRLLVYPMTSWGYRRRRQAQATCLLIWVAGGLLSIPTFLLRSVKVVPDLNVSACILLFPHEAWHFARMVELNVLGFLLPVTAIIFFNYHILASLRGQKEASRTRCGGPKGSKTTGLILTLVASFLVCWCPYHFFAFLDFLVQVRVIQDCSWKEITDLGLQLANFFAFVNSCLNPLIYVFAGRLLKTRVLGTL
# In short: (§1)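 FLIPR Ca2+ assay in recombinant CHO K1 cells (human or rat B1R), Fluo-4 dye; 10 μM compound, 10 min, then EC-level agonist per species (0.5 nM Lys-Des-Arg9-BK human / 100 nM Des-Arg9-BK rat). Output: % inhibition vs maximum.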
# [2] = system: formalin-induced pain behavior; assay: Formalin test in the mouse (phase 2, chronic pain component); assay type: in vivo; conditions: iv, 5 min. before formalin injection, observation 21 to 24 minutes after formalin
# Experimental: The formalin test (Dubuisson, D. and Dennis, S. G., 1977, Pain, 4, 161-174) represents a model for both acute and chronic pain. By means of a single formalin injection into the dorsal side of a rear paw, a biphasic nociceptive reaction is induced in freely mobile test animals; the reaction is detected by observing three behaviour patterns which are clearly distinguishable from one another. The reaction is two-phase: phase 1=immediate reaction (duration up to 10 min., shaking of the paw, licking), phase 2=late reaction (after a rest phase; likewise shaking of the paw, licking; duration up to 60 min.). The 1st phase reflects a direct stimulation of the peripheral nocisensors with high spinal nociceptive input (acute pain phase); the 2nd phase reflects a spinal and peripheral hypersensitization (chronic pain phase). In the studies described here, the chronic pain component (phase 2) has been evaluated. Formalin in a volume of 20 μl and a concentration of 1% is administered subcutaneously into the dorsal side of the right rear paw of each animal. The specific changes in behavior, such as lifting, shaking or licking of the paw (score 3, Dubuisson & Dennis, 1977), are observed and recorded in the observation period of 21 to 24 minutes following the formalin injection. The behaviour of the animals after administration of the substance (n=10 per dose of substance) was compared with a control group which received vehicle (n=10). Based on the quantification of the pain behavior, the action of the substance in the formalin test was determined as the change in percent compared with the control. The ED50 calculations (ED50=mean effective dose) were carried out by regression analysis according to the method of Litchfield and Wilcoxon (Litchfield, J. T., Wilcoxon, J. J., 1949, J. Pharmacol. Exp. Ther. 96, 99-113). The time of administration before the formalin injection was chosen in dependence on the mode of administration of the compounds according to the invention (intravenous: 5 min.).
# [3] = target: T2, human B1R receptor (Homo sapiens, UniProt P46663); assay: Functional study on the bradykinin receptor 1 (B1R), FLIPR Ca2+ assay, hB1R cells; assay type: cell-based; conditions: agonist Lys-Des-Arg9-bradykinin 0.5 nM, % inhibition compared with the maximum achievable inhibition; for inhibition at 10 µM: CHO-K1, test substance 10 μM, read-out: B1R Antagonism, human [10 μM] % Inhibition
# T2 construct: host or cells: CHO K1 cells (Chinese hamster ovary), stably transfected
# T2 sequence (P46663 1-353): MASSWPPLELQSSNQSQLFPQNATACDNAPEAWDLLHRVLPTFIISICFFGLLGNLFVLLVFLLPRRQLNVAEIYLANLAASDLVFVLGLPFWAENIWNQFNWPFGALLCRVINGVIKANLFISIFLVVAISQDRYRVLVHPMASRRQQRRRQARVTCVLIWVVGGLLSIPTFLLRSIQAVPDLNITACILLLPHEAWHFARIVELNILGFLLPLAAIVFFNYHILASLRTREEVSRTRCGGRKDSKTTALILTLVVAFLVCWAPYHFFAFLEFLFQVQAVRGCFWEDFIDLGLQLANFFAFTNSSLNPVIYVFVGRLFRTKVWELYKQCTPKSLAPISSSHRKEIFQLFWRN
# In short: as §1
SMILES,inhibition at 10 µM [1],ED50 [2],inhibition at 10 µM [3],"B1R Antagonism, human [10 μM] % Inhibition ([3]; test substance 10 μM, hB1R CHO K1 cells)"
"COc1cc(C)c(S(=O)(=O)N2CCCCC2COCC(=O)N2CCN(C3CCN(C)CC3)CC2)c(C)c1.Cl.Cl (centres unmarked) [Example 97, 2-((1-(4-methoxy-2,6-dimethylphenylsulfonyl)piperidin-2-yl)methoxy)-1-(4-(1-methylpiperidin-4-yl)piperazin-1-yl)ethanone dihydrochloride]",98.2%,13.3 mg/kg,98%,
"COc1cc(C)c(S(=O)(=O)N2CCCCC2COCC(=O)N(C)Cc2ccc(C3=NCCN3)cc2)c(C)c1.Cl (centres unmarked) [Example 193, N-(4-(4,5-dihydro-1H-imidazol-2-yl)benzyl)-2-((1-(4-methoxy-2,6-dimethylphenylsulfonyl)piperidin-2-yl)methoxy)-N-methylacetamide hydrochloride]",98.3%,2.59 mg/kg,104%,
"COc1cc(C)c(S(=O)(=O)N2CCCCC2COCC(=O)N2CCC(N3CCN4CCCCC4C3)CC2)c(C)c1 (centres unmarked) [Example 98, 1-(4-(dihydro-1H-pyrido[1,2-a]pyrazin-2(6H,7H,8H,9H,9aH)-yl)piperidin-1-yl)-2-((1-(4-methoxy-2,6-dimethylphenylsulfonyl)piperidin-2-yl)methoxy)ethanone]",101%,13.6 mg/kg,104%,
"COc1cc(C)c(S(=O)(=O)N2CCCCC2COCC(=O)N2CCNCC2)c(C)c1 (centres unmarked) [Example 102, 2-((1-(4-methoxy-2,6-dimethylphenylsulfonyl)piperidin-2-yl)methoxy)-1-(piperazin-1-yl)ethanone hydrochloride]",100%,,104%,
"CN1CCC(N2CCN(C(=O)COCC3CCCCN3S(=O)(=O)c3ccc(Cl)c(C(F)(F)F)c3)CC2)CC1 (centres unmarked) [Example 115, 2-((1-(4-chloro-3-(trifluoromethyl)phenylsulfonyl)piperidin-2-yl)methoxy)-1-(4-(1-methylpiperidin-4-yl)piperazin-1-yl)ethanone]",58.1%,,102%,
"Cc1ccc(C)n1CCN1CCN(C(=O)COCC2CCCN2S(=O)(=O)c2c(Cl)cccc2Cl)CC1 (centres unmarked) [Example 287, 2-((1-(2,6-dichlorophenylsulfonyl)pyrrolidin-2-yl)methoxy)-1-(4-(2-(2,5-dimethyl-1H-pyrrol-1-yl)ethyl)piperazin-1-yl)ethanone]",89.2%,,101%,
"O=C(COCC1CCCCN1S(=O)(=O)c1cccc(Br)c1)N1CCC(CCN2CCCC2)CC1 (centres unmarked) [Example 124, 2-((1-(3-bromophenylsulfonyl)piperidin-2-yl)methoxy)-1-(4-(2-(pyrrolidin-1-yl)ethyl)piperidin-1-yl)ethanone]",63.2%,,76.3%,
"COc1cc(C)c(S(=O)(=O)N2CCCC2COCC(=O)NCc2ccc(CN3CCCC3)cc2)c(C)c1 (centres unmarked) [Example 299, 2-((1-(4-methoxy-2,6-dimethylphenylsulfonyl)pyrrolidin-2-yl)methoxy)-N-(4-(pyrrolidin-1-ylmethyl)benzyl)acetamide]",103%,,106%,
"COc1cc(C)c(S(=O)(=O)N2CCCCC2COCC(=O)NCC2CCCN(Cc3ccccc3)C2)c(C)c1 (centres unmarked) [Example 415, N-((1-benzylpiperidin-3-yl)methyl)-2-((1-(4-methoxy-2,6-dimethylphenylsulfonyl)piperidin-2-yl)methoxy)acetamide]",97.5%,,99.2%,
"O=C(COCC1CCCCN1S(=O)(=O)c1c(Cl)cccc1Cl)N1CCN(CCc2ccccc2)CC1 (centres unmarked) [Example 320, 2-((1-(2,6-dichlorophenylsulfonyl)piperidin-2-yl)methoxy)-1-(4-phenethylpiperazin-1-yl)ethanone]",102%,,106%,
"COc1cc(C)c(S(=O)(=O)N2CCCCC2COCC(=O)NCc2ccc(N3CCN(C)CC3)cc2)c(C)c1 (centres unmarked) [Example 434, 2-((1-(4-methoxy-2,6-dimethylphenylsulfonyl)piperidin-2-yl)methoxy)-N-(4-(4-methylpiperazin-1-yl)benzyl)acetamide]",101%,,104%,
"COc1cc(C)c(S(=O)(=O)N2CCCCC2COCC(=O)NCc2ccc(Oc3cnccn3)cc2)c(C)c1 (centres unmarked) [Example 196, 2-((1-(4-methoxy-2,6-dimethylphenylsulfonyl)piperidin-2-yl)methoxy)-N-(4-(pyrazin-2-yloxy)benzyl)acetamide]",98.8%,,100%,
"COc1cc(C)c(S(=O)(=O)N2CCCCC2COCC(=O)N2CCN(c3ccc(Cl)c(Cl)c3)CC2)c(C)c1 (centres unmarked) [Example 378, 1-(4-(3,4-dichlorophenyl)piperazin-1-yl)-2-((1-(4-methoxy-2,6-dimethylphenylsulfonyl)piperidin-2-yl)methoxy)ethanone]",98.8%,,63.4%,
"CN1CCC(N2CCN(C(=O)COC[C@@H]3Cc4ccccc4CN3S(=O)(=O)c3ccc(Cl)cc3Cl)CC2)CC1 [Example 133, (S)-2-((2-(2,4-dichlorophenylsulfonyl)-1,2,3,4-tetrahydroisoquinolin-3-yl)methoxy)-1-(4-(1-methylpiperidin-4-yl)piperazin-1-yl)ethanone]",98.1%,,103%,
"COc1cc(C)c(S(=O)(=O)N2CCCCC2COCC(=O)N(CCN(C)C)Cc2ccccc2)c(C)c1 (centres unmarked) [Example 361, N-benzyl-N-(2-(dimethylamino)ethyl)-2-((1-(4-methoxy-2,6-dimethylphenylsulfonyl)piperidin-2-yl)methoxy)acetamide]",101%,,93.4%,
"COc1cc(C)c(S(=O)(=O)N2CCCCC2COCC(=O)NCc2ccc(N3CCOCC3)cc2)c(C)c1 (centres unmarked) [Example 21, 2-[1-(4-methoxy-2,6-dimethyl-phenylsulfonyl)-piperidin-2-ylmethoxy]-N-(4-morpholin-4-yl-benzyl)-acetamide]",108%,,,93.47%
"COc1cc(C)c(S(=O)(=O)N2CCCC2COCC(=O)N2CCN(c3ccncc3)CC2)c(C)c1 (centres unmarked) [Example 274, 2-((1-(4-methoxy-2,6-dimethylphenylsulfonyl)pyrrolidin-2-yl)methoxy)-1-(4-(pyridin-4-yl)piperazin-1-yl)ethanone]",98.1%,,104%,
"COc1cc(C)c(S(=O)(=O)N2CCCCC2COCC(=O)NCCN(C)C)c(C)c1 (centres unmarked) [Example 259, N-(2-(dimethylamino)ethyl)-2-((1-(4-methoxy-2,6-dimethylphenylsulfonyl)piperidin-2-yl)methoxy)acetamide]",99.3%,,66.1%,
"COc1cc(C)c(S(=O)(=O)N2CCCC2COCC(=O)N(Cc2ccccc2)c2cccc(C)n2)c(C)c1 (centres unmarked) [Example 464, N-benzyl-2-((1-(4-methoxy-2,6-dimethylphenylsulfonyl)pyrrolidin-2-yl)methoxy)-N-(6-methylpyridin-2-yl)acetamide]",102%,,56.6%,
